In the METLIN SMRT retention time set (Domingo-Almenara et al. 2019):

Assay: gradient 5% acetonitrile 3 min, to 50% in 2 min, to 85% in 15 min, held 3 min, 100 µL/min
Settings: column: Zorbax Extend-C18 2.1 x 50 mm; eluents: water / acetonitrile, 0.1% formic acid
How it was run: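 Pure standards were run in mixtures of ~100 molecules by HPLC coupled to a quadrupole time-of-flight mass spectrometer. The column was a Zorbax Extend-C18 (2.1 × 50 mm, 1.8 μm) at 100 μL/min, with water and acetonitrile each containing 0.1% formic acid, in positive and negative ionization mode. Dead and dwell volumes were 40 μL and 900 μL. Retention time was taken from computationally picked adduct peaks, each manually inspected, with data collected over 3 months.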

SMILES	RP-LC retention time [s]
O=C(Nc1ccccc1OC(F)F)c1ccc(S(=O)(=O)N2CCOCC2)cc1	841
CCOCCOC1CCN(C(=O)c2ccco2)CC1	667
CCOCCCNC(=O)C1CCN(c2nccnc2Oc2ccccc2C)CC1	841
COc1ccc(-c2ncc3c(n2)CCN(C(=O)Nc2cccc(Br)c2)C3)cc1	1010
C[C@H]1CN(C(=O)c2cc(F)cc(F)c2)C[C@@H]1c1nc(-c2cccnc2)no1	795
CCOc1ccc(C(=O)N2CCN(c3cnn4c(C5CC5)nnc4c3)CC2)cc1	659
Cc1cc(NC(=O)C2CCCN(c3ccc(-c4ccc(Cl)cc4)nn3)C2)no1 (stereo not given)	686
CC(C)NC(=O)N1CCCC(Cn2c(C3CC3)nc3cccnc32)C1 (stereo not given)	604
Cc1cc(C)c2c(N3CCCC3)nc(C(=O)NCc3cccs3)nc2n1	643
Cc1sc2cc(C(=O)N3CCN(c4ccccn4)CC3)[nH]c2c1CN1CCCC1	558
COc1ccc(NS(=O)(=O)c2cn(C(C)C)c3ncccc23)cc1Cl	908
CCn1cc(-c2nc(C(=O)N3CCN(c4ccccc4F)CC3)cs2)c2cccnc21	1040
COc1ccc(C2(C(=O)N3CCC(Cc4ncc(C)n4CC4CC4)C3)CC2)cc1 (stereo not given)	654
CCOc1ccc(OCC)c(NC(=O)C(=O)c2ccc[nH]2)c1	1070
O=c1oc(-c2ccccc2)c(-c2ccccc2)c2ccccc12	1030
COc1cc(F)ccc1-c1ccnc2nc(C3CCCCC3)nn12	1000
CCc1cccc(N2C(=O)CN(S(=O)(=O)CC)CC2(C)C(=O)NCc2ccc(F)cc2)c1 (stereo not given)	945
Cc1cc(NC(=O)C2CCN(S(=O)(=O)c3cn(C)cn3)CC2)ccc1Br	802
Cc1cccc(C)c1NC(=O)N1CCN(CCn2c(C(C)C)nc3cccnc32)CC1	602
Cc1ccc(-c2nc(C3CC(=O)N(c4ccc(Cl)cc4)C3)no2)c(C)c1 (stereo not given)	994
Cc1c(C(=O)N2CCN(S(C)(=O)=O)CC2)nnn1-c1nc2c(s1)CCCC2	798
Cc1sc2cc(C(=O)O)[nH]c2c1C(=O)N1CCOCC1	622
Cc1ccc(Cn2c(C)c3cnn(CC(=O)NCC4CCCO4)c(=O)c3c2C)cc1 (stereo not given)	780

SMILES	RP-LC retention time [s]
Cc1csc(-c2ccc(N3CCN(C(=O)c4ccco4)CC3)nc2)n1	711
Cc1cc(C)c2c(CN3CCN(c4ccccn4)CC3)cc(=O)oc2c1	672
Cc1ccc(-c2ncccc2CNS(=O)(=O)c2cccc(Cl)c2)cc1	766
CC(=O)Nc1cccc(C(=O)NCCc2c[nH]c3ccc(F)cc23)c1	711
COCCc1noc(-c2cnc3nc(C)ccc3c2NCc2ccccc2C)n1	653
CCC(CC)C(=O)Nc1c(-c2ccc(F)cc2)nc2cc(C)ccn12	674
O=C(Nc1ccc2c(c1)OCO2)C1CC(=O)N(CCc2c[nH]c3ccc(F)cc23)C1 (stereo not given)	750
COCC(C)(O)CNC(=O)c1cc(Cl)ccc1Cl (stereo not given)	657
COc1ccccc1CNC(=O)C1CN(C(=O)c2cccs2)CC12CCCCC2 (stereo not given)	912
CN1C(=O)CCC2(CNC(=O)c3cnccn3)CCC=C12 (stereo not given)	644
CCC(C)(C)NS(=O)(=O)c1cc(-c2nc(C)c(C(=O)N3CCCC3)s2)n(C)c1	838
Cc1cccc(-n2cc(C(=O)OCc3ccncc3)c3ccccc3c2=O)c1	743
O=C(Nc1ccc2c(c1)CN(C(=O)c1ccco1)CC2)c1cnccn1	662
COC(=O)c1c(C)[nH]c(C(=O)N2CCC(CC(=O)NCc3ccc(N(C)C)cc3)CC2)c1C	595
CCc1ccccc1NC(=O)CN1C(=O)NC2(CCC(C)CC2)C1=O (stereo not given)	698
Cc1ccc(CC(=O)Nc2ccc(-c3nc(Cn4cc(C)cn4)c(C)o3)cc2)cc1	962
CCCNC(=O)N1CCCC(CCc2nnc(-c3cnccn3)o2)C1 (stereo not given)	647
COc1cccc(N2CCN(C(=O)C3CCN(S(=O)(=O)c4cn(C)c(C)n4)CC3)CC2)c1	702
Fc1ccc(Cc2nc3nccc(-c4ccccc4)n3n2)cc1	890
CN(C)C(CNC(=O)c1cc(=O)c2cc(Cl)ccc2o1)c1cccs1 (stereo not given)	631
CCOc1ccc(NC(=O)NCCc2nc3cccnc3n2C2CCCC2)cc1	721
Cc1ccnc(NS(=O)(=O)c2ccc(NC(=O)c3ccc([N+](=O)[O-])s3)cc2)n1	699
Cc1ccc(-n2ncc3c(=O)n(Cc4nc(-c5ccc(Br)cc5)no4)cnc32)cc1	1200

SMILES	RP-LC retention time [s]
CN1CCN(CCCNC(=O)CCc2cn(-c3ccccc3)nc2-c2ccc3c(c2)OCO3)CC1	614
COc1cccc(NC(=O)C2CCCN(c3nc4ccccc4nc3OC)C2)c1 (stereo not given)	1100
CN1C(=O)CCc2cc(NC(=O)Cc3ccsc3)ccc21	709
COc1ccc(CCC(=O)NCC(C)(O)c2ccccc2)cc1 (stereo not given)	709
CCCCC(=O)Nc1nc(-c2ccc(C)cc2C)cs1	1100
Cc1cccc(CNC(=O)c2cn3ccc(C)cc3n2)c1	675
CS(=O)(=O)Nc1ccc(-c2noc(CNC(=O)c3ccccc3)n2)cc1	704
CCOc1ccc(S(=O)(=O)N2CCCC(C(=O)Nc3ccccc3)C2)cc1 (stereo not given)	999
Cn1c(=O)c2cc(C(=O)N3CCN(c4ccccc4F)CC3)sc2n(C)c1=O	765
CCSc1ccc(-n2ncc(C(=O)NC3CC3)c2C)nn1	722
COc1cc2c(cc1OC)[C@@H](C(=O)N(C)c1ccc(Cl)cc1)[C@@H]1CCCCN1C2=O	719
COC[C@@H]1OCCN(S(=O)(=O)c2cc(OC)ccc2OC)[C@H]1c1ccccc1	896
CCc1cccc(Nc2c(C(=O)N3CCOCC3)cnc3nc(C)ccc23)c1	617
CCc1ccc(NC(=O)CSc2ccc(N3CCC(C(=O)NC(C)C)CC3)nn2)cc1	680
COc1ccc(-c2noc(CC3CCN(C(=O)C4(c5ccc(OC)cc5)CC4)CC3)n2)cc1	1030
Cc1ccc(C)c(N2CCN(Cc3nc(-c4ccc(N5CCC(C)CC5)nc4)no3)CC2)c1	1270
O=C(Nc1ccc2c(c1)OCCO2)c1cc(-c2ccccn2)n[nH]1	648
CCOCC(=O)N1CCC(N2CC(OCC3CC3)C23CCCCC3)CC1 (stereo not given)	644
CN(CCNC(=O)C1CCCN(S(=O)(=O)c2ccc3c(ccn3C)c2)C1)Cc1ccccc1 (stereo not given)	704
COCCNC(=O)c1ccc(CNS(=O)(=O)c2cc(C)ccc2C)cc1	703
CCN1CCN(c2ccc(-c3nc(-c4ccc(C)cc4)no3)cn2)CC1	715
O=C(Cc1ccc(F)cc1)N(CC1CCOC1)C1CC1 (stereo not given)	794
CCOc1ccccc1CNC(=O)Cc1csc2nc(-c3ccccc3)cn12	830

SMILES	RP-LC retention time [s]
CCOC(=O)c1c(S(=O)(=O)N2CCC(C(=O)Nc3ccc4c(c3)OCO4)CC2)c(C)n(C)c1C	807
COc1cc(C(C)=O)ccc1OCC(O)CN1CCN(c2ccccc2F)CC1 (stereo not given)	652
O=C(Nc1ccccc1F)C1CCN(S(=O)(=O)c2cc(C(=O)N3CCCC3)cs2)CC1	790
Cc1cc2oc3c(c(=O)c2cc1C)C(c1ccccc1F)N(c1nccs1)C3=O (stereo not given)	1050
CCn1ccc2sc(C)c(C(=O)NCC(C)C)c2c1=O	747
Cc1ccc(C)c(NC(=O)CSc2nc(N3CCCCC3)nc3ccccc23)c1	804
CCSc1nc2nc3c(cn2n1)C(=O)CCC3	723
CCc1cc(C(=O)NCc2ccc(F)cc2)nc2ccnn12	909
CC1CC(C)CN(CCCNC(=O)CCCn2c(=O)c3cccn3c3ccccc32)C1 (stereo not given)	659
O=c1c2cc(-c3ccc(Br)cc3)nn2cnn1Cc1nc(-c2ccc(F)cc2)no1	1210
CC1CCN(c2cc(-c3noc(C(=O)N4CCN(C5CCCCC5)CC4)n3)ccn2)CC1	647
CC1CCN(CCNS(=O)(=O)c2ccccc2-c2nc(-c3ccc(F)cc3)no2)CC1	752
Cc1nn(-c2ccc(C(=O)NCc3ccco3)cc2)c2c1C(=O)CC(C)(C)C2	756
CCc1nnc(NC(=O)CSc2nnc(Cn3c(=O)sc4ccccc43)n2C)s1	658
Cc1c(Br)cc(C(=O)NC(C)C)c(C)c1C	838
Cc1nc(-c2csc(S(=O)(=O)N3CCC(C(=O)N4c5ccccc5CC4C)CC3)c2)no1 (stereo not given)	1050
CC(=O)Nc1ccc(-c2nc3ccccc3s2)cc1	799
CC1CCC(C(C)C)C(NC(=O)c2ccncc2)C1 (stereo not given)	894
O=C(CCCSc1ccc(NC(=O)c2cccs2)nn1)Nc1cnc2ccccc2c1	706
CCc1ccc(NC(=O)Cn2c(=O)n(-c3ccc(C)cc3)c(=O)c3c2cc(C)n3C)cc1	956
CC(=O)c1cccc(NC(=O)Cn2c(-c3ccc(F)cc3)nc(C)cc2=O)c1	963
